Values of other authors as cited in article PMC7126291 (Bioorganic & Medicinal Chemistry Letters, 2009).

Assays:
human rhinovirus = conditions: Phase II clinical trials, intranasal delivery

Row | SMILES | IC50 (HAV 3C^pro) [nM] | reduction of mean total daily symptom score (human rhinovirus) [%]
1 | O=C(Oc1cncc(Br)c1)c1ccco1 [Compound 7] | 53 | 
2 | CCOC(=O)/C=C/[C@H](C[C@@H]1CCNC1=O)NC(=O)[C@@H](CC(=O)[C@@H](NC(=O)c1cc(C)on1)C(C)C)Cc1ccc(F)cc1 [rupintrivir] |  | 33
